Reference: the supplement of paper PMC11061612

Assays:
Assay in all cases: combination Emax (second highest fraction inhibited in the dose matrix, 72 h); higher = more inhibition; extreme values may be limits of the assay
[1] = system: MS-1 (Small Cell Lung Carcinoma)
How it was run: (§1)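 Bliss excess equals the observed combination effect minus the expected value EA + EB − EA·EB, where EA and EB are the effects of each agent alone. Combination Emax is the second-highest inhibition within the matrix. Inhibition was scaled from CellTiter-Glo 2.0 luminescence, with 0 set by vehicle wells and 1 by blank wells, after 72 hours of two-drug dosing of cells plated in 1536-well plates.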

NCI-H226 (Mesothelioma) = system: NCI-H226 (Mesothelioma)
How it was run: as §1

[2] = system: NCI-H596 (Other Solid Carcinomas)
How it was run: as §1

[3] = system: KP-4 (Pancreatic Carcinoma)
How it was run: as §1

AM-38 (Glioblastoma) = system: AM-38 (Glioblastoma)
How it was run: as §1

NB1 (Neuroblastoma) = system: NB1 (Neuroblastoma)
How it was run: as §1

[4] = system: MDA-MB-415 (Breast Carcinoma)
How it was run: as §1

[5] = system: PL4 (Pancreatic Carcinoma)
How it was run: as §1

[6] = system: NCI-H3118 (Head and Neck Carcinoma)
How it was run: as §1

UACC-257 (Melanoma) = system: UACC-257 (Melanoma)
How it was run: as §1

[7] = system: IA-LM (Non-Small Cell Lung Carcinoma)
How it was run: as §1

[8] = system: SUP-M2 (T-Cell Non-Hodgkin's Lymphoma)
How it was run: as §1

T47D (Breast Carcinoma) = system: T47D (Breast Carcinoma)
How it was run: as §1

GAK (Melanoma) = system: GAK (Melanoma)
How it was run: as §1

[9] = system: LCLC-103H (Non-Small Cell Lung Carcinoma)
How it was run: as §1

[10] = system: SNU-423 (Hepatocellular Carcinoma)
How it was run: as §1

[11] = system: SKG-IIIa (Cervical Carcinoma)
How it was run: as §1

[12] = system: SCC-4 (Oral Cavity Carcinoma)
How it was run: as §1

[13] = system: BxPC-3 (Pancreatic Carcinoma)
How it was run: as §1

[14] = system: PA-TU-8988T (Pancreatic Carcinoma)
How it was run: as §1

| Structure (SMILES) | combination Emax [1] | combination Emax (NCI-H226 (Mesothelioma)) | combination Emax [2] | combination Emax [3] | combination Emax (AM-38 (Glioblastoma)) | combination Emax (NB1 (Neuroblastoma)) | combination Emax [4] | combination Emax [5] | combination Emax [6] | combination Emax (UACC-257 (Melanoma)) | combination Emax [7] | combination Emax [8] | combination Emax (T47D (Breast Carcinoma)) | combination Emax (GAK (Melanoma)) | combination Emax [9] | combination Emax [10] | combination Emax [11] | combination Emax [12] | combination Emax [13] | combination Emax [14] |
| --- | --- | --- | --- | --- | --- | --- | --- | --- | --- | --- | --- | --- | --- | --- | --- | --- | --- | --- | --- | --- |
| CN(CCO)CC[C@H](CSc1ccccc1)Nc1ccc(S(=O)(=O)NC(=O)c2ccc(N3CCC([C@@H](O)c4ccccc4-c4ccc(Cl)cc4)CC3)cc2)cc1S(=O)(=O)C(F)(F)F [AZD4320] + Cc1cc2ncnn2cc1Nc1ncc2c(n1)n(C1CCOCC1)c(=O)n2C [AZD7648] (first compound max 1 µM, 7x7, partner max 10 µM) | 0.586 | 0.0544 | 0.338 | 0.136 | 0.811 | 0.191 | 0.749 | 0.421 | 0.0876 | 0.122 | 0.488 | 0.47 | 0.312 | 0.314 | 0.223 | 0.39 | 0.12 | 0.737 | 0.0888 | 0.23 |
| CCN(CCO)CCCOc1ccc2c(Nc3cc(CC(=O)Nc4cccc(F)c4)[nH]n3)ncnc2c1 [AZD2811] + O=C(c1cc(Cc2n[nH]c(=O)c3ccccc23)ccc1F)N1CCN(C(=O)C2CC2)CC1 [Olaparib] (first compound max 1 µM, 7x7, partner max 10 µM) | 0.454 | 0.236 | 0.238 | 0.513 | 0.331 | 0.653 | 0.225 | 0.269 | 0.208 | 0.237 | 0.222 | 0.975 | 0.233 | 0.295 | 0.752 | 0.264 | 0.147 | 0.406 | 0.244 | 0.208 |
| COc1nnc2ccc(N3CCC(c4ccc(OCCN5CCN(C)C(=O)[C@H]5C)cc4)CC3)nn12 [AZD5153] + Cc1c2c(nn1C)CSCc1cc(n(C)n1)CSc1cc(c3ccccc3c1)OCCCc1c(C(=O)O)n(C)c3c-2c(Cl)ccc13 [AZD5991] (first compound max 1 µM, 7x7, partner max 1 µM) | 0.961 | 0.407 | 0.79 | 0.76 | 0.295 | 0.52 | 0.693 | 0.63 | 0.678 | 0.501 | 0.483 | 1 | 0.571 | 0.836 | 0.414 | 0.431 | 0.471 | 0.775 | 0.463 | 0.886 |
| C=CCn1c(=O)c2cnc(Nc3ccc(N4CCN(C)CC4)cc3)nc2n1-c1cccc(C(C)(C)O)n1 [AZD1775] + C1CN(CCC1(C(=O)N[C@@H](CCO)C2=CC=C(C=C2)Cl)N)C3=NC=NC4=C3C=CN4 [Capivasertib] (first compound max 3 µM, partner max 3 µM) | 0.911 | 0.45 | 0.708 | 0.787 | 0.702 | 0.69 | 0.764 | 0.737 | 0.947 | 0.455 | 0.413 | 1 | 0.555 | 0.73 | 0.626 | 0.659 | 0.574 | 0.505 | 0.681 | 0.851 |
| Cc1c2c(nn1C)CSCc1cc(n(C)n1)CSc1cc(c3ccccc3c1)OCCCc1c(C(=O)O)n(C)c3c-2c(Cl)ccc13 [AZD5991] + Cc1cc2ncnn2cc1Nc1ncc2c(n1)n(C1CCOCC1)c(=O)n2C [AZD7648] (first compound max 1 µM, 7x7, partner max 10 µM) | 0.564 | 0.203 | 0.367 | 0.263 | 0.615 | 0.211 | 0.619 | 0.386 | 0.308 | 0.244 | 0.295 | 1 | 0.475 | 0.305 | 0.363 | 0.362 | 0.197 | 0.458 | 0.231 | 0.319 |
| Cc1c2c(nn1C)CSCc1cc(n(C)n1)CSc1cc(c3ccccc3c1)OCCCc1c(C(=O)O)n(C)c3c-2c(Cl)ccc13 [AZD5991] + C=CCn1c(=O)c2cnc(Nc3ccc(N4CCN(C)CC4)cc3)nc2n1-c1cccc(C(C)(C)O)n1 [AZD1775] (first compound max 1 µM, partner max 1 µM) | 0.916 | 0.269 | 0.289 | 0.659 | 0.53 | 0.936 | 0.404 | 0.737 | 0.9 | 0.294 | 0.265 | 1 | 0.574 | 0.802 | 0.523 | 0.591 | 0.377 | 0.715 | 0.616 | 0.891 |
| COc1cc2c(cc1OCCCCCOc1cc3c(cc1OC)C(=O)N1C=C(C)C[C@H]1C=N3)N=C[C@@H]1CC(C)=CN1C2=O [SG3199] + O=C(c1cc(Cc2n[nH]c(=O)c3ccccc23)ccc1F)N1CCN(C(=O)C2CC2)CC1 [Olaparib] (first compound max 0.001 µM, 7x7, partner max 10 µM) | 0.379 | 0.0668 | 0.202 | 0.0915 | 0.306 | 0.187 | 0.0958 | 0.204 | 0.118 | 0.0273 | 0.139 | 0.839 | 0.164 | 0.106 | 0.0713 | 0.146 | 0.144 | 0.0768 | 0.101 | 0.206 |
| CN(C)CCCOc1ccc(-c2ccc3ncc4c(c3c2)n(C2CCOCC2)c(=O)n4C)cn1 [AZD0156] + O=C(c1cc(Cc2n[nH]c(=O)c3ccccc23)ccc1F)N1CCN(C(=O)C2CC2)CC1 [Olaparib] (first compound max 3 µM, partner max 3 µM) | 0.438 | 0.251 | 0.41 | 0.287 | 0.45 | 0.357 | 0.325 | 0.34 | 0.305 | 0.21 | 0.305 | 0.606 | 0.366 | 0.193 | 0.289 | 0.293 | 0.139 | 0.164 | 0.0983 | 0.211 |
| CC1(C)CCC(CN2CCN(c3ccc(C(=O)NS(=O)(=O)c4ccc(NCC5CCOCC5)c([N+](=O)[O-])c4)c(Oc4cnc5[nH]ccc5c4)c3)CC2)=C(c2ccc(Cl)cc2)C1 [Venetoclax] + CCN(CCO)CCCOc1ccc2c(Nc3cc(CC(=O)Nc4cccc(F)c4)[nH]n3)ncnc2c1 [AZD2811] (first compound max 1 µM, 7x7, partner max 1 µM) | 0.34 | 0.158 | 0.207 | 0.322 | 0.221 | 0.606 | 0.231 | 0.248 | 0.207 | 0.226 | 0.249 | 0.898 | 0.266 | 0.242 | 0.333 | 0.229 | 0.229 | 0.429 | 0.365 | 0.0634 |
| CS(=O)(=O)CCNCc1ccc(-c2ccc3ncnc(Nc4ccc(OCc5cccc(F)c5)c(Cl)c4)c3c2)o1 [Lapatinib] + C[C@@H](Oc1cc(-c2cnn(C3CCNCC3)c2)cnc1N)c1c(Cl)ccc(F)c1Cl [Crizotinib] (first compound max 10 µM, 7x7, partner max 10 µM) | 0.941 | 0.44 | 0.902 | 0.761 | 0.91 | 0.965 | 0.633 | 0.884 | 0.928 | 0.947 | 0.489 | 1 | 0.525 | 0.75 | 0.624 | 0.952 | 0.733 | 0.913 | 0.946 | 0.64 |
| CN(CCO)CC[C@H](CSc1ccccc1)Nc1ccc(S(=O)(=O)NC(=O)c2ccc(N3CCC([C@@H](O)c4ccccc4-c4ccc(Cl)cc4)CC3)cc2)cc1S(=O)(=O)C(F)(F)F [AZD4320] + CN(C)CCCOc1ccc(-c2ccc3ncc4c(c3c2)n(C2CCOCC2)c(=O)n4C)cn1 [AZD0156] (first compound max 1 µM, 7x7, partner max 1 µM) | 0.68 | 0.224 | 0.289 | 0.101 | 0.718 | 0.173 | 0.636 | 0.462 | 0.0719 | 0.141 | 0.432 | 0.388 | 0.283 | 0.209 | 0.219 | 0.515 | 0.109 | 0.612 | 0.0513 | 0.183 |
| CC1(C)CCC(CN2CCN(c3ccc(C(=O)NS(=O)(=O)c4ccc(NCC5CCOCC5)c([N+](=O)[O-])c4)c(Oc4cnc5[nH]ccc5c4)c3)CC2)=C(c2ccc(Cl)cc2)C1 [Venetoclax] + C=CCn1c(=O)c2cnc(Nc3ccc(N4CCN(C)CC4)cc3)nc2n1-c1cccc(C(C)(C)O)n1 [AZD1775] (first compound max 1 µM, partner max 1 µM) | 0.939 | 0.268 | 0.259 | 0.56 | 0.289 | 0.889 | 0.206 | 0.551 | 0.836 | 0.185 | 0.36 | 0.981 | 0.219 | 0.792 | 0.394 | 0.732 | 0.271 | 0.637 | 0.727 | 0.728 |
